These results are taken from US12655142B2 (Merck Patent GmbH, priority 2019, dated 2026).

pIC50: −log10 of the molar value. Where only a bound is given, the exact number is not on record here.

Series [1] addresses T1, GIST430/654 cell line expressing mutated constitutively active cKIT receptor tyrosine kinase (Δ560-576 deletion and V654A point mutation) (Homo sapiens, UniProt P10721, DEL560-576/V654A).
T1 construct: endogenous in cells; host or cells: GIST430/654 cells
Description: Cellular cKIT autophosphorylation (phospho-Y307-cKIT, Luminex bead assay) in GIST430/654 cells. It is filed as cell-based. The conditions noted are these: compounds 45 min, read-out: GIST 430/654 IC50. The method, boiled down:
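GIST430 (Δ560-576) and imatinib-resistant GIST430/654 (plus V654A; grown with 100 nM imatinib) cells were plated in IMDM/15% FCS and treated next day with serially diluted compound for 45 min. Lysates were captured on anti-total-cKIT Luminex beads overnight at 4 °C and probed for phospho-Y307. IC50 was taken from percent of 0.3% DMSO control.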

Series [2] can be described thus: Determination of Efflux-Ratio (ER) in Caco-2 cells. The conditions noted are these: human, Caco-2, pH 7.4.
Description: Determination of Efflux-Ratio (ER) in Caco-2 Cells
The efflux ratio of the test compounds was determined in Caco-2 human epithelial colorectal adenocarcinoma cell line (TC7 clone) using calculation of apparent permeability (Papp). Cell monolayers were differentiated in vitro for 14 days before the experiment. Subsequently, the test compound (in HBSS pH 7.4 at 1 μM final concentration) was applied on the donor side while HBSS buffer (pH 7.4) was added to the receiver wells. […] The plate was then incubated in a 5% CO2 incubator (37° C., 100% humidity). At the end of the 2 hours incubation period, 50 μL sample was removed from both donor and receiver wells and diluted 1:1 with equal volumes of acetonitrile for LC-MS/MS analysis. The LC-MS/MS analysis used a one-point calibration method from a 1 μM standard solution diluted 1:1 with equal volume of acetonitrile (consistent to the test samples).
The data was used to calculate the apparent permeabilities of the compounds in both apical to basolateral (Papp,AB) and basolateral to apical (Papp,BA) directions at 1 μM concentration in duplicate. The Papp values were calculated from the concentrations in the donor and receiver compartments using the following formula:
Efflux ratio was calculated according to the following formula:
In a further series the target is T2, c-Kit(V654A) (Homo sapiens, UniProt P10721, V654A).
T2 construct: recombinant human c-Kit, amino acids 544-end containing the V654A mutation; GST (N)
T2 sequence (P10721 544-976 V654A): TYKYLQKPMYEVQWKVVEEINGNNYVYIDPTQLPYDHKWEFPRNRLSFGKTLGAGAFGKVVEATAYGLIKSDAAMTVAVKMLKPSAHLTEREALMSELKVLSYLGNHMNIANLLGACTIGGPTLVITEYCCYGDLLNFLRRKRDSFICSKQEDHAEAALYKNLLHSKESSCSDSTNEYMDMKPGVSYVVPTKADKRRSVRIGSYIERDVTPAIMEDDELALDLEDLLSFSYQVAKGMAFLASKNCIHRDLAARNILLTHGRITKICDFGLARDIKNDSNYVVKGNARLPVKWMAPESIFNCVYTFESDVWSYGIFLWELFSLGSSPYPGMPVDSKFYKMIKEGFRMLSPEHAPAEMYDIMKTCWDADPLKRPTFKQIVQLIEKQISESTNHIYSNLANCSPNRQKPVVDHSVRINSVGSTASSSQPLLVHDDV
The experiment in a line: c-Kit(V654A) assay (33P-ATP filter binding kinase assay). The conditions noted are these: recombinant human c-Kit aa 544-end V654A, ATP 200 μM. It is filed as biochemical. In short, it runs like this: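 Radiometric filter-binding read-out: substrate 33P incorporation counted by scintillation after P30 filtermat washes in 75 mM phosphoric acid and methanol. Enzyme: N-GST recombinant human c-Kit aa 544-end carrying V654A.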

A word on the efflux ratio: it is a quotient of directional permeabilities that is used to spot active efflux.

T1 sequence (P10721 with tags, fused parts or gaps DEL560-576/V654A): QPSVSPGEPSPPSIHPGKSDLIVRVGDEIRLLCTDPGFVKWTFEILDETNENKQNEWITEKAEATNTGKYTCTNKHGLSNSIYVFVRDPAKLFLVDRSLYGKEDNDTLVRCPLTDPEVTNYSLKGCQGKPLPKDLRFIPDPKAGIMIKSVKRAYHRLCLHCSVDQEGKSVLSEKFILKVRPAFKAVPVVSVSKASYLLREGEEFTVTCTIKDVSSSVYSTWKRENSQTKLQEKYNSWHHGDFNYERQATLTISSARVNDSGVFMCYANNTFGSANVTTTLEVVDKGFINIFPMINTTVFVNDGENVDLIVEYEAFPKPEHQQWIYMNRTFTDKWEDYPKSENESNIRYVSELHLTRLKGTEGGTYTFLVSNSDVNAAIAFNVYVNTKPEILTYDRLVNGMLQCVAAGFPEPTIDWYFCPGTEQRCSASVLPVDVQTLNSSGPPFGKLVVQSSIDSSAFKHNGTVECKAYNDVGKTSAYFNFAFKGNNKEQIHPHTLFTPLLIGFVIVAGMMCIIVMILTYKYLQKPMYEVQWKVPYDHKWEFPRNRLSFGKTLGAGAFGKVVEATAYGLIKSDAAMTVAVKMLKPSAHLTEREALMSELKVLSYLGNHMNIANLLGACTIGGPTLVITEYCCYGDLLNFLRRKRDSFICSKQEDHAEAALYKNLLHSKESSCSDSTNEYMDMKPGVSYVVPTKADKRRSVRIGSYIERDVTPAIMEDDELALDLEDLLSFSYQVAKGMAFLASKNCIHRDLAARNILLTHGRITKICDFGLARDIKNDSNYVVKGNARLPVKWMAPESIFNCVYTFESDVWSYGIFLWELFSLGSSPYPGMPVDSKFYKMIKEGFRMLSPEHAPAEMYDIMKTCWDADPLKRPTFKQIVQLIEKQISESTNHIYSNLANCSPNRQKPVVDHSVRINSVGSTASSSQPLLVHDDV

Turning to `COCCOc1ccn2c(-c3cc(NCc4ccc(-c5cnn6c5CCC6)cc4)ncn3)cnc2c1` [A17, 6-[7-(2-methoxyethoxy)imidazo[1,2-a]pyridin-3-yl]-N-[(4-{4H,5H,6H-pyrrolo[1,2-b]pyrazol-3-yl}phenyl)methyl]pyrimidin-4-amine], the pIC50 was 6.96 in series [1] and 8.01 at c-Kit(V654A). The efflux ratio at 2 h, 1 μM in series [2] is less than 15.
In the case of `COCCn1cc(-c2ccc(CNc3cc(-c4cnc5cc(OC)ccn45)ncn3)cc2)cn1` [A19, {4-[1-(2-methoxy-ethyl)-1H-pyrazol-4-yl]-benzyl}-[6-(7-methoxy-imidazo[1,2-a]pyridin-3-yl)-pyrimidin-4-yl]-amine], the pIC50 was 7.15 in series [1] and 8.03 at c-Kit(V654A). Besides, the efflux ratio at 2 h, 1 μM in series [2] is less than 15.
In the case of `Cn1cc(-c2ccc(CNc3cc(-c4cnc5cc(OCCC[N+]6([O-])CCCC6)ccn45)ncn3)cc2)cn1` [A228, 1-[3-({3-[6-({[4-(1-methyl-1H-pyrazol-4-yl)phenyl]methyl}amino)pyrimidin-4-yl]imidazo[1,2-a]pyridin-7-yl}oxy)propyl]pyrrolidin-1-ium-1-olate], the values for the pIC50 (in series [1]; on c-Kit(V654A)) were 7.36 and 7.96, respectively.
For the compound `COc1ccn2c(-c3cc(NCc4ccc(-c5cn(CC(C)(C)O)nc5N)cc4)ncn3)cnc2c1` [A229, 1-[3-amino-4-(4-{[6-(7-methoxy-imidazo[1,2-a]pyridin-3-yl)-pyrimidin-4-ylamino]-methyl}-phenyl)-pyrazol-1-yl]-2-methyl-propan-2-ol], the pIC50 in series [1] is 6.18; on c-Kit(V654A), 7.06.
Regarding `Cn1ncc(-c2ccc(CNc3cc(-c4cnc5cc(N6CCCC6)ccn45)ncn3)cc2)n1` [A232, [4-(2-methyl-2H-[1,2,3]triazol-4-yl)-benzyl]-[6-(7-pyrrolidin-1-yl-imidazo[1,2-a]pyridin-3-yl)-pyrimidin-4-yl]-amine], the pIC50 is 6.77 in series [1] and 7.64 at c-Kit(V654A).
Regarding `CC(COc1ccn2c(-c3cc(NCc4ccc(-c5cnn(C)c5)cc4)ncn3)cnc2c1)CN1CCCC1` (stereo not shown) [A235, [4-(1-methyl-1H-pyrazol-4-yl)-benzyl]-{6-[7-(2-methyl-3-pyrrolidin-1-yl-propoxy)-imidazo[1,2-a]pyridin-3-yl]-pyrimidin-4-yl}-amine], the figures for the pIC50 (in series [1]; at c-Kit(V654A)) were 7.06 and 8.37, respectively.
For `Cn1cc(-c2ccc(CNc3cc(-c4cnc5cc(OCCCN6CCCCC6)ccn45)ncn3)cc2)cn1` [A237, N-{[4-(1-methyl-1H-pyrazol-4-yl)phenyl]methyl}-6-{7-[3-(piperidin-1-yl)propoxy]imidazo[1,2-a]pyridin-3-yl}pyrimidin-4-amine], in that order: 7.46 and 8.37.
Regarding `Cn1cc(-c2ccc(CNc3cc(-c4cnc5cc(OCCCN6CC7(COC7)C6)ccn45)ncn3)cc2)cn1` [A238, [4-(1-methyl-1H-pyrazol-4-yl)-benzyl]-(6-{7-[3-(2-oxa-6-aza-spiro[3.3]hept-6-yl)-propoxy]-imidazo[1,2-a]pyridin-3-yl}-pyrimidin-4-yl)-amine], the pIC50 in series [1] was 7.21; at c-Kit(V654A), 8.19.
In the same order, the values of `Cn1ncc(-c2ccc(CNc3cc(-c4cnc5cc(OCCCN6CC7(COC7)C6)ccn45)ncn3)cc2)n1` [A239, [4-(2-methyl-2H-[1,2,3]triazol-4-yl)-benzyl]-(6-{7-[3-(2-oxa-6-aza-spiro[3.3]hept-6-yl)-propoxy]-imidazo[1,2-a]pyridin-3-yl}-pyrimidin-4-yl)-amine] are 7.03 and 8.49.
On to `Cn1cc(-c2ccc(CNc3cc(-c4cnc5cc(F)ccn45)ncn3)cc2)cn1` [H1, 6-{7-fluoroimidazo[1,2-a]pyridin-3-yl}-N-{[4-(1-methyl-1H-pyrazol-4-yl)phenyl]methyl}pyrimidin-4-amine], for which the pIC50 is 6.62 in series [1] and 7.92 on c-Kit(V654A).
